Entries after “also recorded” stand apart in the source; their conditions may differ.
Key:
[1] = test system: kidney cortex of naïve mice; experiment: Mitochondrial biogenesis in kidney cortex of naïve mice; assay type: in vivo
Experimental: Mice were treated with vehicle, 0.3 mg/kg or 1 mg/kg of MC16 with 2 doses IP (Oh, 24h) and harvested at 48 h.
Proteins were measured using immunoblot analysis or PCR to measure mRNA. […] FIG. 2G is a table of antioxidant and electron transport chain proteins and associated mRNAs.

[2] = test system: mice subjected to renal I/R; experiment: Mouse AKI model (renal ischemia reperfusion, I/R); assay type: in vivo
Experimental: Control and treated mice subjected to renal I/R were treated with MC16 (0.3 mg/kg) or vehicle 24 h after injury and then daily for 120 h (euthanized at 144 h). Using electron microscopy, mitochondria were counted. Vascular permeability was assessed with Evan's blue dye leakage and proteins were measured in renal cortices using immunoblot. Serum creatinine was also measured.

[3] = test system: renal proximal tubule cells (RPTCs); experiment: Renal proximal tubule cells treated with high glucose; assay type: cell-based
Experimental: Here, the effects of MC16 on mitochondrial dysfunction and dynamics in renal proximal tubule cells (RPTCs) treated with high glucose and in a mouse model of type 2 diabetes was assessed.

Db/db mice = experiment: db/db mouse model of diabetic kidney disease; assay type: in vivo
Experimental: Db/db and nondiabetic (db/m) mice (10 wk old) were treated with MC16 or vehicle for 3 wk and euthanized.

[4] = test system: aged mouse kidneys (renal cortex); experiment: Global metabolomics of renal cortex in aged mice; assay type: in vivo
Experimental: Aged 22-month-old male C57B/6J mice were administered 1.0 mg/kg of MC16 or normal saline every other day over a 21-day interval (n=8-9/group). Seven-month-old C57B/6J male mice (controls) were administered normal saline every other day over a 21-day interval (n=7). Kidneys were harvested and snap frozen in liquid nitrogen. Renal cortex biopsies were analyzed by Metabolon for global metabolomic analyses. Briefly, samples were processed and divided into four fractions: two for analysis by RP/UPLC-MS/MS with (+) ion mode electrospray ionization (IMESI), one for RP/UPLC-MS/MS with (−) IMESI, and one for HILIC/UPLC-MS/MS with (−) IMESI. […] A p-value of p≤0.05 and a false discovery rate of q<0.10 were utilized to identify global metabolite alteration and correct for multiple comparisons, respectively.

[5] = I/R+MC16 group, decreased in I/R group
[6] = RPTCs exposed to 17 mM glucose, 96 h
[7] = FIG. 16, compared to diabetic mice getting vehicle
[8] = db/db mice 10 wk old, treated for 3 wk
[9] = MC16-treated 'old' mice compared to saline-treated 'old' mice
[10] = MC16-treated 'old' mice vs saline-treated 'young' control mice

CCN1C(=O)C(Cc2cccc(OC)c2O)(OC(=O)N(C)C)c2cc(Cl)ccc21 (stereo not shown) [MC16, 5-chloro-1-ethyl-3-(2-hydroxy-3-methoxybenzyl)-2-oxoindolin-3-yl dimethylcarbamate]
mitochondrial and antioxidant proteins ([1]; immunoblot or PCR, n=6): increases
mitochondrial biogenesis pathway proteins and/or associated mRNA ([1]; immunoblot or PCR, n=6): induces
Mitochondrial number in kidney cortex ([1]; naïve mice, 0.3 mg/kg or 1 mg/kg, 2 doses IP (0 h, 24 h), harvested at 48 h): increases
recovery of renal function (serum creatinine) ([2]; FIG. 3, n=6): promotes recovery
recovery of tubular injury (Kim1 expression) ([2]; FIG. 3, n=6): promotes recovery
MFN2 ([2]; FIG. 5, during injury or MC16 treatment): did not change
MFN1 (fusion) ([2]; FIG. 5, n=6): increases
pDRP1 (fission) ([2]; FIG. 6, at 144 h): decreases
DRP1 ([2]; FIG. 6, n=6): does not have an affect
PGC-1α in the cytosolic fraction ([2]; FIG. 7, cytosolic fraction): not in the cytosolic fraction
nuclear PGC-1α (biogenesis) ([2]; FIG. 7, nuclear fraction): increases
serum creatinine decrease ([2]; I/R+MC16, 0.3 mg/kg from 24 h after injury, daily, at 144 h (I/R group alone 41%)): 72%
Kim1 decrease ([2]; I/R+MC16 group, 0.3 mg/kg, 144 h): 50%
PGC-1α ([2]; I/R+MC16 group, renal cortex immunoblot): increased
Tight junction protein Claudin5 [2, 5]: recovered
Tight junction protein ZO-1 [2, 5]: recovered
Evan's blue dye leakage (vascular permeability) ([2]; I/R+MC16 group, increased 2.5-fold in I/R group): restored
mitochondria biogenesis in renal cortices ([2]; mitochondria counted by electron microscopy, 0.3 mg/kg): 1.4 fold
ATP [3, 6]: restored
ETC proteins [3, 6]: restored
oxygen consumption rate [3, 6]: restored
Mfn1 ([3]; RPTCs exposed to high glucose): restored
phospho-Drp1 ([3]; RPTCs exposed to high glucose): restored
PGC1α (Db/db mice; FIG. 9, n=6): restores
MFN2 (fusion) (Db/db mice; FIG. 10, n=6): increased
mitochondrial fission proteins (Db/db mice; FIG. 11, n=6): no effect
mitophagy proteins (Db/db mice; FIG. 12, n=6): increases
glomerular function over time (Db/db mice; FIG. 13, mice have yet to show signs of DKD in the timeframe): does not change
vascular tight junction proteins (Db/db mice; FIG. 15, n=6): improves
blood glucose (Db/db mice; [7]): does not increase/decrease
urine output (Db/db mice; [7]): does not increase/decrease
kidney weight (Db/db mice; FIG. 17, relative to control mice): normalized
KIM1 (Db/db mice; FIG. 18): normalizes
NGAL (Db/db mice; FIG. 18): No effects
serum creatinine (Db/db mice; FIG. 18): normalizes
ATP (Db/db mice; [8]): prevented; also recorded: restores
phospho-Drp1 (Db/db mice; [8]): restored
renal cortical ETC protein levels (complexes I, III, and V) (Db/db mice; [8]): prevented; also recorded: restores
reduction in DHAP [4, 9]: 20%
reduction in fructose-6-phosphate [4, 9]: 24%
reduction in glucose-6-phosphate [4, 9]: 32%
long chain polyunsaturated fatty acids (n3 and n6) ([4]; MC16-treated 'old' mice vs saline-treated 'old' and 'young' mice controls): increase
glycolysis metabolites [4, 10]: no statistical changes
metabolic lipid alterations (diacylglycerols, monoacylglycerols, acyl glycines, PC, PE, plasmalogens, secondary bile acids) [4, 10]: not observed
origin of carnitine species ([4]; MC16-treated 'old' mice, saline-treated 'old' mice: leucine, isoleucine, valine metabolism): fatty acid metabolism
carnitine levels ([4]; both 'old' groups (saline and MC16)): elevated

Source: US20250381169A1, “METHODS FOR TREATING RENAL DISEASE” (Arizona Board of Regents on Behalf of the University of …, priority 2022, published 2025)
